The text below walks through data of patent US9290691B2, “Organic el material-containing solution, method for forming organic el thin film, organic el device comprising organic el thin film, and method for manufacturing organic el display panel” (IDEMITSU KOSAN CO., LTD., priority 2007, dated 2016).

The nature of this data set: Solvent solubility of naphthacene host compound. Type of data set: physicochemical. The following applies: aromatic substituent bonded to naphthacene skeleton in para position; solvent not stated. The text has this:
For instance, when an aromatic group as a substituent is bonded to a naphthacene skeleton in para position, the solubility is lowered.

`c1ccc(-c2ccc(-c3c4ccccc4c(-c4ccc(-c5ccccc5)cc4-c4ccccc4)c4cc5ccccc5cc34)c(-c3ccccc3)c2)cc1` had a solubility of no more than 0.1 mass %.
